{"source": "patent US20250099514A1", "about": "“FISH REARING COMPOSITION, AND COMPOSITION FOR PREVENTING OR TREATING FISH DISEASES” (SUMITOMO CHEMICAL COMPANY, LIMITED, priority 2021, published 2025)", "key": {"[1]": {"system": "Lactococcus garvieae 03/8460 strain", "settings": "NPL 3; cited from earlier work"}, "[2]": {"system": "Lactococcus garvieae CLG4 strain", "settings": "NPL 4; cited from earlier work"}, "[3]": {"system": "Lactococcus garvieae type I (TUMSAT-K9408 strain)", "test": "Antibacterial activity test: growth of Lactococcus garvieae type I after shaking culture with the test substance, colony formation on TH agar", "assay_type": "cell-based", "settings": "Experiments 8 and 9, 1 to 10 μM", "description": "(§1) Examination was performed on whether bacterial cell preparations of NITE BP-03198, NITE BP-03199, NITE BP-03200, NITE BP-03202, ATCC-11454, and NITE ABP-03481 inhibit the growth of Lactococcus garvieae type I (TUMSAT-K9408 strain) and type II (TUMSAT-LgN1 strain). With reference to FIG. 7, the experimental method will be described. To 270 μL of Todd-Hewitt (TH) medium 10, 30 μL of a lactic acid bacterial cell preparation 11 was added. Furthermore, 3 μL of a bacterial solution 12 containing Lactococcus garvieae (approximately 10^5 cfu/mL) was added, and shaking culture was performed at 25° C. for 8 hours. To TH agar medium 14, 5 μL of a bacterial culture solution 13 was dropped, culture was performed at 25° C. for 12 hours, and whether a colony 15 of Lactococcus garvieae formed was observed. If the number of colonies observed was five or less, it was determined that there was antibacterial activity. Lactic acid bacterial cell preparations were prepared in the following manner. For NITE BP-03198, NITE BP-03199, NITE BP-03200, and NITE BP-03202, first, the lactic acid bacteria were each cultured in MRS Broth at a temperature of 30° C., giving culture solutions. Thereafter, the culture solutions were centrifuged to precipitate bacterial cells, and the culture supernatants were collected. […]"}, "[4]": {"system": "Lactococcus garvieae type II (TUMSAT-LgN1 strain)", "test": "Antibacterial activity test: growth of Lactococcus garvieae type II after shaking culture with the test substance, colony formation on TH agar", "assay_type": "cell-based", "settings": "Experiments 8 and 9, 1 to 10 μM", "description": "as §1"}, "[5]": {"system": "Lactococcus garvieae type I (TUMSAT-K9408 strain)", "test": "Antibacterial activity test: growth of Lactococcus garvieae type I after shaking culture with the test substance, colony formation on TH agar", "assay_type": "cell-based", "parameters": "key: +: presence of antibacterial activity; −: absence of antibacterial activity", "settings": "25° C., 8 hours", "description": "(§2) Examination was performed on whether bacterial cell preparations of NITE BP-03198, NITE BP-03199, NITE BP-03200, NITE BP-03202, ATCC-11454, and NITE ABP-03481 inhibit the growth of Lactococcus garvieae type I (TUMSAT-K9408 strain) and type II (TUMSAT-LgN1 strain). With reference to FIG. 7, the experimental method will be described. To 270 μL of Todd-Hewitt (TH) medium 10, 30 μL of a lactic acid bacterial cell preparation 11 was added. Furthermore, 3 μL of a bacterial solution 12 containing Lactococcus garvieae (approximately 10^5 cfu/mL) was added, and shaking culture was performed at 25° C. for 8 hours. To TH agar medium 14, 5 μL of a bacterial culture solution 13 was dropped, culture was performed at 25° C. for 12 hours, and whether a colony 15 of Lactococcus garvieae formed was observed. If the number of colonies observed was five or less, it was determined that there was antibacterial activity. Lactic acid bacterial cell preparations were prepared in the following manner. For NITE BP-03198, NITE BP-03199, NITE BP-03200, and NITE BP-03202, first, the lactic acid bacteria were each cultured in MRS Broth at a temperature of 30° C., giving culture solutions. Thereafter, the culture solutions were centrifuged to precipitate bacterial cells, and the culture supernatants were collected. The culture supernatants collected were 10-fold concentrated by using an ultrafiltration membrane (Merck Millipore, AMICON ULTRA-15 3 KDa cutoff), giving bacterial cell preparations. For ATCC-11454 and NITE ABP-03481, bacterial cell preparations were obtained in the same manner as described for NITE BP-03198 and others. As a negative control, medium for lactic acid bacteria (MRS Broth) was added to a bacterial solution containing Lactococcus garvieae.\n(§3) Examination was performed on whether synthetic plantaricins inhibit the growth of Lactococcus garvieae type I (TUMSAT-K9408 strain) and type II (TUMSAT-LgN1 strain). The method in Experiment 8 is the same as that in Experiment 7 except that synthetic plantaricins were used in place of the lactic acid bacterial cell preparations. Each synthetic plantaricin was synthesized by using common techniques of organic synthesis. A solution containing plantaricin A (plantaricin A), a solution obtained by mixing plantaricin E and plantaricin F at a ratio (mole ratio) of 1:1 (plantaricin EF), a solution obtained by mixing plantaricin J and plantaricin K at a ratio (mole ratio) of 1:1 (plantaricin JK), or a solution obtained by mixing plantaricin NC8α and plantaricin NC8β at a ratio (mole ratio) of 1:1 (plantaricin NC8αβ) was added to a bacterial solution containing Lactococcus garvieae, and shaking culture was performed at 25° C. for 8 hours. The bacterial solutions containing Lactococcus garvieae after culture were each dropped on agar medium, and whether a colony of Lactococcus garvieae formed was observed.\nExamination was performed on whether a purified product of nisin A inhibits the growth of Lactococcus garvieae type I (TUMSAT-K9408 strain) and type II (TUMSAT-LgN1 strain). The method in Experiment 9 is the same as those in Experiments 7 and 8 except that a purified product of nisin A was used in place of the lactic acid bacterial cell preparations or the synthetic plantaricins. A purified product of nisin A (manufactured by Sigma-Aldrich Co. LLC) was dissolved in water and removed of insoluble components by centrifugation, giving a nisin A solution. […]"}, "[6]": {"system": "Lactococcus garvieae type II (TUMSAT-LgN1 strain)", "test": "Antibacterial activity test: growth of Lactococcus garvieae type II after shaking culture with the test substance, colony formation on TH agar", "assay_type": "cell-based", "parameters": "key: +: presence of antibacterial activity; −: absence of antibacterial activity", "settings": "25° C., 8 hours", "description": "as §2\nas §3, with “The bacterial solutions containing Lactococcus garvieae after culture were each dropped on agar medium, and whether a colony of Lactococcus garvieae formed was observed.” left out"}, "[7]": {"system": "Lactococcus garvieae type I (TUMSAT-K9408 strain)", "test": "Antibacterial activity test: growth of Lactococcus garvieae type I after shaking culture with the test substance, colony formation on TH agar", "assay_type": "cell-based", "parameters": "key: +: presence of antibacterial activity,; −: absence of antibacterial activity", "settings": "synthetic plantaricin 10 μM; 25° C., 8 hours", "description": "as §1"}, "[8]": {"system": "Lactococcus garvieae type II (TUMSAT-LgN1 strain)", "test": "Antibacterial activity test: growth of Lactococcus garvieae type II after shaking culture with the test substance, colony formation on TH agar", "assay_type": "cell-based", "parameters": "key: +: presence of antibacterial activity,; −: absence of antibacterial activity", "settings": "25° C., 8 hours", "description": "as §1"}}, "note": "Non-standard residues stand in square brackets, D forms with d. Primed or numbered codes have the meaning given here. No end group written: not given here. Dhb′ = not defined here; Dha = C=C(N)C(=O)O"}
{"substance": "nisin Z (I[Dhb′]SI[Dha]LCTPGCKTGALMGCNMKTATCNCSIHV[Dha]K; thioether (positions not given here); not fully specified (residues 3, 8, 13, 23, 25, bridges); also: lanthionine thioether rings and dehydro residues not placed; UniProt P29559 24-57, looked up) [antibacterial peptide produced by Lactococcus lactis strains TW34 and WA2-67 (literature)]", "values": [{"measurement": "Growth of the Lactococcus garvieae 03/8460 strain", "setting": "[1]", "result": "inhibited the growth"}, {"measurement": "Growth of the Lactococcus garvieae CLG4 strain", "setting": "[2]", "result": "inhibited the growth"}]}
{"substance": "plantaricin A", "values": [{"measurement": "Inhibition of the growth of Lactococcus garvieae type I (in words)", "setting": "[3]", "result": "inhibited the growth"}, {"measurement": "Inhibition of the growth of Lactococcus garvieae type II (in words)", "setting": "[4]", "result": "inhibited the growth"}, {"measurement": "Antibacterial activity, Lactococcus garvieae TUMSAT-K9408", "setting": "[5]; synthetic plantaricin 1 μM", "result": "−"}, {"measurement": "Antibacterial activity, Lactococcus garvieae TUMSAT-K9408", "setting": "[5]; synthetic plantaricin 3 μM", "result": "−"}, {"measurement": "Antibacterial activity, Lactococcus garvieae TUMSAT-LgN1", "setting": "[6]; synthetic plantaricin 1 μM", "result": "−"}, {"measurement": "Antibacterial activity, Lactococcus garvieae TUMSAT-K9408", "setting": "[7]", "result": "+"}, {"measurement": "Antibacterial activity, Lactococcus garvieae TUMSAT-LgN1", "setting": "[8]; synthetic plantaricin 3 μM", "result": "+"}, {"measurement": "Antibacterial activity, Lactococcus garvieae TUMSAT-LgN1", "setting": "[8]; synthetic plantaricin 10 μM", "result": "+"}]}
{"substance": "nisin A (I[Dhb′]SI[Dha]LCTPGCKTGALMGCNMKTATCHCSIHV[Dha]K; thioether (positions not given here); not fully specified (residues 3, 8, 13, 23, 25, bridges); also: lanthionine thioether rings and dehydro residues not placed; UniProt P13068 24-57, looked up) [purified product of nisin A (manufactured by Sigma-Aldrich Co. LLC) dissolved in water]", "values": [{"measurement": "Inhibition of the growth of Lactococcus garvieae type I (in words)", "setting": "[3]", "result": "inhibited the growth"}, {"measurement": "Inhibition of the growth of Lactococcus garvieae type II (in words)", "setting": "[4]", "result": "inhibited the growth"}, {"measurement": "Antibacterial activity, Lactococcus garvieae TUMSAT-K9408", "setting": "[5]; nisin A solution 1 μM", "result": "+"}, {"measurement": "Antibacterial activity, Lactococcus garvieae TUMSAT-K9408", "setting": "[5]; nisin A solution 3 μM", "result": "+"}, {"measurement": "Antibacterial activity, Lactococcus garvieae TUMSAT-K9408", "setting": "[5]; nisin A solution 10 μM", "result": "+"}, {"measurement": "Antibacterial activity, Lactococcus garvieae TUMSAT-LgN1", "setting": "[6]; nisin A solution 1 μM", "result": "+"}, {"measurement": "Antibacterial activity, Lactococcus garvieae TUMSAT-LgN1", "setting": "[6]; nisin A solution 3 μM", "result": "+"}, {"measurement": "Antibacterial activity, Lactococcus garvieae TUMSAT-LgN1", "setting": "[6]; nisin A solution 10 μM", "result": "+"}]}
